#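 These data come from cells grown in 96-well plates and exposed to compound for 48 hours at five concentrations. At the GI50, growth is halved.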 The source made the active and inactive calls. Cut-off read from the data, not from the text of the source: active = GI50 up to about 1.1 µM and inactive = higher.
# Experiments:
# Assay in all cases: growth of human tumour cells (NCI), 48 h
# A498 = system: A498
# SW-620 = system: SW-620
# HL-60 = system: HL-60
# ACHN = system: ACHN
# TK-10 = system: TK-10
# OVCAR-8 = system: OVCAR-8
# NCI-H226 = system: NCI-H226
# RXF 393 = system: RXF 393
# HCT-15 = system: HCT-15
# Malme-3M = system: Malme-3M
# COLO 205 = system: COLO 205
# SF-539 = system: SF-539
# NCI-H460 = system: NCI-H460
# SF-268 = system: SF-268
# IGROV-1 = system: IGROV-1
# CAKI-1 = system: CAKI-1
SMILES,GI50 (A498),GI50 (SW-620),GI50 (HL-60),GI50 (ACHN),GI50 (TK-10),GI50 (OVCAR-8),GI50 (NCI-H226),GI50 (RXF 393),GI50 (HCT-15) [µM],GI50 (Malme-3M),GI50 (COLO 205),GI50 (SF-539),GI50 (NCI-H460),GI50 (SF-268),GI50 (IGROV-1),GI50 (CAKI-1)
CCSC1=CC(Cc2ccc(OC)cc2)N(C(=O)OC)C1 (centres undefined),> 100 µM (inactive),25.2 µM (inactive),21.9 µM (inactive),> 100 µM (inactive),> 100 µM (inactive),> 100 µM (inactive),> 100 µM (inactive),32.3 µM (inactive),40.7,> 100 µM (inactive),81.5 µM (inactive),> 100 µM (inactive),> 100 µM (inactive),> 100 µM (inactive),> 100 µM (inactive),86.5 µM (inactive)
C/C(=N/NC(=O)C(N)=O)C(CC(C(=O)Nc1ccccc1C)/C(C)=N\NC(=O)C(N)=O)C(=O)Nc1ccccc1C (centres undefined),> 100 µM (inactive),> 100 µM (inactive),> 100 µM (inactive),83.2 µM (inactive),> 100 µM (inactive),> 100 µM (inactive),> 100 µM (inactive),> 100 µM (inactive),–,> 100 µM (inactive),> 100 µM (inactive),> 100 µM (inactive),> 100 µM (inactive),> 100 µM (inactive),> 100 µM (inactive),> 100 µM (inactive)
CC(C)S(=O)(=O)ON1C(=O)c2ccc([N+](=O)[O-])cc2C1=O,> 100 µM (inactive),> 100 µM (inactive),> 100 µM (inactive),> 100 µM (inactive),> 100 µM (inactive),> 100 µM (inactive),> 100 µM (inactive),> 100 µM (inactive),> 100,> 100 µM (inactive),> 100 µM (inactive),> 100 µM (inactive),> 100 µM (inactive),> 100 µM (inactive),> 100 µM (inactive),> 100 µM (inactive)
COc1ccc2c(c1)CC[C@@H]1C2CC[C@]2(C)C(=O)NC(=O)CC12 (some centres undefined),> 100 µM (inactive),> 100 µM (inactive),43.6 µM (inactive),> 100 µM (inactive),> 100 µM (inactive),> 100 µM (inactive),67.5 µM (inactive),–,> 100,> 100 µM (inactive),> 100 µM (inactive),> 100 µM (inactive),> 100 µM (inactive),> 100 µM (inactive),> 100 µM (inactive),> 100 µM (inactive)
CCCC/C=C1\CCC(C)(CN(C)C)C1=O (centres undefined),> 100 µM (inactive),> 100 µM (inactive),55.5 µM (inactive),> 100 µM (inactive),> 100 µM (inactive),> 100 µM (inactive),–,46.5 µM (inactive),> 100,> 100 µM (inactive),–,> 100 µM (inactive),> 100 µM (inactive),> 100 µM (inactive),> 100 µM (inactive),> 100 µM (inactive)
CCOc1ccc(NC(=O)CCc2nnc(SC)o2)cc1,> 100 µM (inactive),> 100 µM (inactive),> 100 µM (inactive),> 100 µM (inactive),> 100 µM (inactive),> 100 µM (inactive),> 100 µM (inactive),> 100 µM (inactive),> 100,> 100 µM (inactive),> 100 µM (inactive),> 100 µM (inactive),> 100 µM (inactive),> 100 µM (inactive),> 100 µM (inactive),> 100 µM (inactive)
COC(=O)N/N=C(\C)c1c(O)cc(C)oc1=O,> 100 µM (inactive),25.9 µM (inactive),45.2 µM (inactive),25.8 µM (inactive),33.2 µM (inactive),59.3 µM (inactive),> 100 µM (inactive),–,17,> 100 µM (inactive),–,14.7 µM (inactive),37.8 µM (inactive),22.1 µM (inactive),> 100 µM (inactive),–
CCOc1ccc(/N=C/c2c3ccccc3nc3ccccc23)cc1,68.1 µM (inactive),31.3 µM (inactive),11 µM (inactive),62.1 µM (inactive),83 µM (inactive),65.3 µM (inactive),> 100 µM (inactive),46.2 µM (inactive),25.1,49.5 µM (inactive),> 100 µM (inactive),65.6 µM (inactive),48.9 µM (inactive),71 µM (inactive),> 100 µM (inactive),58.2 µM (inactive)
O=C(Nc1c(O)[nH]c(=S)[nH]c1=O)c1ccccc1F,> 100 µM (inactive),> 100 µM (inactive),> 100 µM (inactive),> 100 µM (inactive),> 100 µM (inactive),> 100 µM (inactive),> 100 µM (inactive),–,> 100,> 100 µM (inactive),> 100 µM (inactive),> 100 µM (inactive),> 100 µM (inactive),> 100 µM (inactive),> 100 µM (inactive),> 100 µM (inactive)
COC(=O)[C@@]12OC[C@]34C([C@@H](O)C1O)[C@@]1(C)CC(=O)C(OC(=O)/C=C(/c5ccccc5)C(F)(F)F)=C(C)C1C[C@H]3OC(=O)[C@H](O)[C@H]42 (some centres undefined),0.52 µM (active),–,1.16 µM (inactive),13.9 µM (inactive),10.1 µM (inactive),12.1 µM (inactive),6.5 µM (inactive),16.9 µM (inactive),23.8,7.91 µM (inactive),11.2 µM (inactive),3.79 µM (inactive),2.43 µM (inactive),11.2 µM (inactive),3.9 µM (inactive),20.1 µM (inactive)
CCCCCCCSCC1C(=O)C23C(O)C1CCC2C12COC3(O)C(O)C1C(C)(C)CCC2O (centres undefined),11.5 µM (inactive),0.881 µM (active),3.96 µM (inactive),12.4 µM (inactive),15.9 µM (inactive),16.4 µM (inactive),17.7 µM (inactive),11.2 µM (inactive),9.02,14.1 µM (inactive),4.16 µM (inactive),13.2 µM (inactive),15.1 µM (inactive),10.8 µM (inactive),17.9 µM (inactive),4.83 µM (inactive)
S=c1sc2c(S)nc(S)nc2n1-c1ccccc1,41 µM (inactive),> 100 µM (inactive),> 100 µM (inactive),> 100 µM (inactive),> 100 µM (inactive),> 100 µM (inactive),> 100 µM (inactive),> 100 µM (inactive),> 100,> 100 µM (inactive),> 100 µM (inactive),> 100 µM (inactive),> 100 µM (inactive),> 100 µM (inactive),> 100 µM (inactive),> 100 µM (inactive)
Cc1nc(C)c(C(=O)Nc2cccc3c2C(=O)NC3=O)cc1C(=O)Nc1cccc2c1C(=O)NC2=O,> 100 µM (inactive),> 100 µM (inactive),> 100 µM (inactive),> 100 µM (inactive),> 100 µM (inactive),> 100 µM (inactive),> 100 µM (inactive),> 100 µM (inactive),> 100,> 100 µM (inactive),> 100 µM (inactive),> 100 µM (inactive),> 100 µM (inactive),> 100 µM (inactive),> 100 µM (inactive),> 100 µM (inactive)
C=CCCCCCCCCCCCC1CCC(CC)N1 (centres undefined),19.5 µM (inactive),11.4 µM (inactive),3.05 µM (inactive),15.7 µM (inactive),16.8 µM (inactive),–,28.5 µM (inactive),4.86 µM (inactive),3.4,16.3 µM (inactive),3.37 µM (inactive),10.6 µM (inactive),17.7 µM (inactive),20.6 µM (inactive),10.1 µM (inactive),11.2 µM (inactive)
O=C1C2C3C=C4c5ccccc5N(c5ccccc5)C4(C2C(=O)N1c1ccc(Br)cc1)[C@H]1C(=O)N(c2ccc(Br)cc2)C(=O)[C@@H]31 (some centres undefined),> 100 µM (inactive),> 100 µM (inactive),> 100 µM (inactive),–,89.3 µM (inactive),> 100 µM (inactive),> 100 µM (inactive),> 100 µM (inactive),> 100,> 100 µM (inactive),31.6 µM (inactive),> 100 µM (inactive),> 100 µM (inactive),–,> 100 µM (inactive),18.8 µM (inactive)
COc1ccc(/N=C/c2ccc(N(CCC#N)S(=O)(=O)c3ccccc3)cc2)cc1,> 100 µM (inactive),> 100 µM (inactive),> 100 µM (inactive),> 100 µM (inactive),> 100 µM (inactive),> 100 µM (inactive),> 100 µM (inactive),> 100 µM (inactive),> 100,> 100 µM (inactive),> 100 µM (inactive),> 100 µM (inactive),> 100 µM (inactive),> 100 µM (inactive),> 100 µM (inactive),> 100 µM (inactive)
CCCCCCCCCCCCCCCCOC(=O)c1cc(O)cc(C(=O)OCCCCCCCCCCCCCCCC)c1,> 100 µM (inactive),> 100 µM (inactive),> 100 µM (inactive),> 100 µM (inactive),> 100 µM (inactive),> 100 µM (inactive),> 100 µM (inactive),> 100 µM (inactive),> 100,> 100 µM (inactive),> 100 µM (inactive),–,> 100 µM (inactive),> 100 µM (inactive),> 100 µM (inactive),> 100 µM (inactive)
COC(=O)C12C34C=CC5(CCC6(C=CC1(CC3)O6)C52C(=O)OC)O4 (centres undefined),93.3 µM (inactive),> 100 µM (inactive),> 100 µM (inactive),> 100 µM (inactive),> 100 µM (inactive),> 100 µM (inactive),> 100 µM (inactive),75 µM (inactive),–,> 100 µM (inactive),> 100 µM (inactive),> 100 µM (inactive),> 100 µM (inactive),> 100 µM (inactive),> 100 µM (inactive),> 100 µM (inactive)

# — ChEMBL document CHEMBL1201862, “PubChem BioAssay data set” (2004)
